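Following 48 hours of exposure in 96-well plates, responses at five concentrations were used to interpolate endpoints linearly. GI50 = concentration required for 50% inhibition of growth.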 The source made the active and inactive calls. No stated cut-off is given here; in the data, active = GI50 up to about 1.1 µM and inactive = higher.

Here are results for eleven compounds from ChEMBL document CHEMBL1201862, “PubChem BioAssay data set” (2004).

Test systems include 786-0; CCRF-CEM; MOLT-4; PC-3; MDA-MB-435; OVCAR-3; TK-10; DU-145; SK-MEL-5; M14; SNB-75; IGROV-1; A549; HCT-116; UO-31; HOP-92; OVCAR-8; T47D; SF-268; Hs-578T.
What all share (assay): DTP human tumour cell line panel, 48 h

Turning to `CN(C)c1ccc(-c2c(C#N)c(S)n(NS(=O)(=O)c3ccccc3)c(=O)c2C#N)cc1`, the GI50 with 786-0 was 17.1 µM (inactive); in the experiment with CCRF-CEM it was 5.93 µM (inactive); in the experiment on MOLT-4 it was 16.6 µM (inactive); with PC-3 it was 21.1 µM (inactive); with MDA-MB-435 it was 21.5 µM (inactive); with OVCAR-3, 36.6 µM (inactive). Moreover, the GI50 with TK-10 is 19 µM (inactive); with DU-145 it was 63.5 µM (inactive); in the experiment with SK-MEL-5 it was 19.8 µM (inactive); in the experiment on M14 it was 27.6 µM (inactive); in the experiment on SNB-75 it was 25.4 µM (inactive); in the experiment with IGROV-1, 15.8 µM (inactive). The GI50 with A549 is 37.9 µM (inactive); in the experiment with HCT-116 it was 27.2 µM (inactive); in the experiment on UO-31, 25.5 µM (inactive); with HOP-92 it was 25 µM (inactive); with OVCAR-8, 16.6 µM (inactive).
Regarding `Cc1c(N2C(=O)C(Cl)C2c2ccc(Cl)cc2)c(=O)n(-c2ccccc2)n1C` (stereo not drawn), the GI50 is 33.1 µM (inactive) in the experiment on 786-0; 23.1 µM (inactive) in the experiment on CCRF-CEM; 31.4 µM (inactive) in the experiment on MOLT-4; > 100 µM (inactive) in the experiment on PC-3; 23.4 µM (inactive) in the experiment with MDA-MB-435; 75.3 µM (inactive) in the experiment on OVCAR-3. Further, the GI50 was > 100 µM (inactive) with TK-10; > 100 µM (inactive) in the experiment on DU-145; > 100 µM (inactive) with SK-MEL-5; 62.7 µM (inactive) in the experiment on M14; 27.1 µM (inactive) in the experiment with IGROV-1; > 100 µM (inactive) in the experiment with A549. For the same compound, the GI50 in the experiment on T47D is 88.3 µM (inactive); with HCT-116, 18.8 µM (inactive); with UO-31, > 100 µM (inactive); in the experiment with HOP-92, 60.5 µM (inactive); in the experiment with OVCAR-8 it was > 100 µM (inactive); in the experiment on SF-268 it was > 100 µM (inactive).
For `O=c1c2ccccc2nc(N/N=C/c2ccc(Cl)cc2)n1-c1ccccc1`, the GI50 is > 100 µM (inactive) in the experiment with 786-0; > 100 µM (inactive) with CCRF-CEM; > 100 µM (inactive) in the experiment with MOLT-4; 49.5 µM (inactive) with PC-3; > 100 µM (inactive) in the experiment on MDA-MB-435; > 100 µM (inactive) in the experiment with OVCAR-3. Also, the GI50 in the experiment with TK-10 was > 100 µM (inactive); with DU-145 it was > 100 µM (inactive); in the experiment on SK-MEL-5 it was > 100 µM (inactive); in the experiment on M14, > 100 µM (inactive); with SNB-75 it was 0.0269 µM (active); in the experiment with IGROV-1 it was > 100 µM (inactive). The GI50 in the experiment on A549 is > 100 µM (inactive); in the experiment on T47D it was 82.6 µM (inactive); in the experiment on HCT-116, > 100 µM (inactive); with UO-31 it was 62.4 µM (inactive); in the experiment with HOP-92 it was 98.6 µM (inactive); in the experiment on OVCAR-8 it was 77.1 µM (inactive). The GI50 with SF-268 is 80.2 µM (inactive).
As for `O=C(/N=N/c1ccccc1Br)NNc1ccccc1Br`, the GI50 in the experiment on 786-0 is 72.1 µM (inactive); with CCRF-CEM, 31 µM (inactive); in the experiment with MOLT-4, 25.6 µM (inactive); in the experiment with PC-3, 38.2 µM (inactive); in the experiment on MDA-MB-435, 84.5 µM (inactive); in the experiment on OVCAR-3, 86.3 µM (inactive). Further, the GI50 was > 100 µM (inactive) with TK-10; > 100 µM (inactive) in the experiment with DU-145; 48.4 µM (inactive) in the experiment with SK-MEL-5; 60.8 µM (inactive) with M14; > 100 µM (inactive) with SNB-75; 55.6 µM (inactive) in the experiment with IGROV-1. Besides, the GI50 in the experiment on A549 is 64.9 µM (inactive); in the experiment on T47D, 13.7 µM (inactive); in the experiment with HCT-116, 24.7 µM (inactive); in the experiment on UO-31, 38.9 µM (inactive); with OVCAR-8, > 100 µM (inactive); in the experiment on SF-268, > 100 µM (inactive).
Consider `Nc1nc(N)nc(-c2cnccn2)n1`, for which the GI50 in the experiment on 786-0, with CCRF-CEM, in the experiment with MOLT-4, in the experiment with PC-3, in the experiment with MDA-MB-435 and in the experiment on OVCAR-3 was > 100 µM (inactive) throughout. Also, the GI50 in the experiment on TK-10, in the experiment on DU-145, in the experiment on M14, in the experiment on SNB-75, in the experiment with IGROV-1 and with A549 was > 100 µM (inactive) throughout. In addition, the GI50 with T47D, in the experiment with HCT-116, in the experiment on UO-31, in the experiment on HOP-92, in the experiment with OVCAR-8 and in the experiment on SF-268 was > 100 µM (inactive) in each case.
In the case of `[O-][S+](Nc1ccccc1)c1cccc(Cl)c1` (stereo not drawn), the GI50 is > 100 µM (inactive) in the experiment with 786-0; 50.4 µM (inactive) in the experiment on CCRF-CEM; 34.7 µM (inactive) in the experiment on MOLT-4; 65.9 µM (inactive) in the experiment with PC-3; 72.1 µM (inactive) in the experiment with MDA-MB-435; > 100 µM (inactive) in the experiment on OVCAR-3. Besides, the GI50 in the experiment with TK-10 was > 100 µM (inactive); in the experiment on DU-145, 75 µM (inactive); in the experiment with SK-MEL-5, 42.8 µM (inactive); in the experiment with M14, > 100 µM (inactive); with SNB-75 it was 76.6 µM (inactive); with IGROV-1, 46.3 µM (inactive). The GI50 in the experiment on A549 was 39.7 µM (inactive); in the experiment on HCT-116, 45.2 µM (inactive); with Hs-578T, 86.3 µM (inactive); in the experiment on UO-31, 60.4 µM (inactive); in the experiment with OVCAR-8, 77.1 µM (inactive); with SF-268, 44.1 µM (inactive).
In the case of `CCOP(=O)(OCC)C1=C(c2ccccc2)OC(N)=C(C#N)C1c1ccc(Cl)cc1` (stereo not drawn), the GI50 was > 100 µM (inactive) with 786-0; 30.1 µM (inactive) in the experiment with CCRF-CEM; > 100 µM (inactive) with MOLT-4; > 100 µM (inactive) with PC-3; > 100 µM (inactive) in the experiment with MDA-MB-435; > 100 µM (inactive) in the experiment with OVCAR-3. The GI50 in the experiment with TK-10, in the experiment on DU-145, with SK-MEL-5, in the experiment on M14, with SNB-75 and in the experiment on IGROV-1 was > 100 µM (inactive) throughout. For the same compound, the GI50 with A549, with T47D, in the experiment with HCT-116, with UO-31, with HOP-92 and in the experiment on OVCAR-8 was > 100 µM (inactive) throughout. For the same compound, the GI50 in the experiment with SF-268 is 38.1 µM (inactive).
As to `O=C(O)c1cnc2[nH]ccn2c1=O`, the GI50 with 786-0, with CCRF-CEM, with MOLT-4, in the experiment on PC-3, with MDA-MB-435 and with OVCAR-3 was > 100 µM (inactive) in each case. The GI50 with TK-10, with DU-145, in the experiment with SK-MEL-5, with M14, with SNB-75 and in the experiment on IGROV-1 was > 100 µM (inactive) in each case. The GI50 in the experiment on A549, with T47D, in the experiment with HCT-116, with UO-31, in the experiment on HOP-92 and in the experiment on OVCAR-8 was > 100 µM (inactive) each time. The GI50 in the experiment with SF-268 is > 100 µM (inactive).
For `COc1cc(C2CC(C)(N3CCOCC3)Oc3cc4c(cc32)OCO4)cc(OC)c1OC` (stereo not drawn), the GI50 in the experiment on 786-0 was 0.157 µM (active); with CCRF-CEM, 0.0352 µM (active); in the experiment on MOLT-4 it was 0.136 µM (active); in the experiment on PC-3 it was 0.116 µM (active); in the experiment with MDA-MB-435 it was < 0.01 µM (active); in the experiment with OVCAR-3, 0.207 µM (active). The GI50 in the experiment with DU-145 was 0.167 µM (active); in the experiment on SK-MEL-5 it was 0.103 µM (active); in the experiment on M14, 0.421 µM (active); in the experiment on IGROV-1, 0.222 µM (active); with A549, 2.14 µM (inactive); with HCT-116, 0.129 µM (active). Besides, the GI50 in the experiment with Hs-578T was 0.191 µM (active); with UO-31, 12.2 µM (inactive); with HOP-92 it was 2.67 µM (inactive); in the experiment on OVCAR-8 it was 0.531 µM (active); in the experiment on SF-268 it was 4.83 µM (inactive).
For the compound `Clc1ccc(-c2nc3ccc4ccccc4c3c3c2CCCC3)cc1`, the GI50 was 75.2 µM (inactive) with 786-0; 68.4 µM (inactive) with CCRF-CEM; > 100 µM (inactive) in the experiment with MOLT-4; > 100 µM (inactive) in the experiment on MDA-MB-435; > 100 µM (inactive) in the experiment on OVCAR-3; > 100 µM (inactive) in the experiment with TK-10. The GI50 was > 100 µM (inactive) in the experiment on DU-145; > 100 µM (inactive) in the experiment on SK-MEL-5; > 100 µM (inactive) in the experiment on M14; > 100 µM (inactive) in the experiment with SNB-75; > 100 µM (inactive) in the experiment on IGROV-1; 63.4 µM (inactive) in the experiment on A549. Also, the GI50 with HCT-116 is 50.5 µM (inactive); in the experiment on Hs-578T, > 100 µM (inactive); with UO-31, > 100 µM (inactive); in the experiment on OVCAR-8, > 100 µM (inactive); with SF-268, > 100 µM (inactive).
In the case of `OCC(O)COCn1cc(Cn2ncc3c(SCc4ccccc4)ncnc32)nn1` (stereo not drawn), the GI50 in the experiment on 786-0, in the experiment with CCRF-CEM, in the experiment with MOLT-4, in the experiment with PC-3, in the experiment with MDA-MB-435 and in the experiment on OVCAR-3 was > 100 µM (inactive) in each case. The GI50 with TK-10, in the experiment with DU-145, in the experiment on SK-MEL-5, in the experiment on M14, in the experiment on IGROV-1 and in the experiment with A549 was > 100 µM (inactive) throughout. Besides, the GI50 is > 100 µM (inactive) in the experiment with T47D; > 100 µM (inactive) in the experiment with HCT-116; > 100 µM (inactive) with UO-31; > 100 µM (inactive) with HOP-92; > 100 µM (inactive) in the experiment with OVCAR-8; 51.4 µM (inactive) in the experiment with SF-268.

Usually GI50 stands for the concentration giving 50% growth inhibition.
